PubChem BioAssay AID588714 (Southern Research Specialized Biocontainment Screening …, 2011)
Results filed as inconclusive are left out. The source made the active and inactive calls.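 The calls were made as follows: active = viability below 80% at one or more tested concentrations, meaning the compound is toxic to the cells; inconclusive = replicate runs disagree on whether viability fell below 80%; inactive = viability of 80% or more at every dose.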

System: not listed separately
Test: Vero E6 cell cytotoxicity, dose response, cytotoxicity control for P. falciparum PFM18AAP inhibitor project, M18 aspartyl aminopeptidase campaign (AID 588714)
Conditions: Vero E6 viability, CellTiter-Glo luminescence, 72 h; at 25 µM (top of the series)
In the case of `O=C(O)CCCCNc1c2ccccc2nc2ccccc12`, the viability was 96.8% (inactive).
In the case of `O=C(O)CCCNc1c2ccccc2nc2ccccc12`, the viability was 103% (inactive).

Same assay, conditions: Vero E6 viability, CellTiter-Glo luminescence, 72 h; at 50 µM (top of the series)
In the case of `COc1ccc(CCNc2ccncc2)cc1OC`, the viability was 87.5% (inactive).
With `Nc1cc(C(=O)c2ccccc2)ccc1O` the viability was 104% (inactive).
For `COc1ccc(CCN2CCN(C)CC2)cc1OC`, the viability was 98% (inactive).
For `Cc1c(-c2ccccc2)[nH]c(-c2ccc(O)c(O)c2)[n+]1O`, the viability was 97.2% (inactive).
In the case of `COc1ccc(CC(=O)O)cc1OC`, the viability was 108% (inactive).
In the case of `COc1ccc(CCC(=O)O)cc1OC`, the viability was 94.6% (inactive).
For `O=c1cc(CO)oc(CN2CCCCC2)c1O`, the viability was 99.7% (inactive).
For `O=C(c1ccco1)N1CCN(Cc2cc(=O)c(O)co2)CC1`, the viability was 92.2% (inactive).
In the case of `O=C(c1ccco1)N1CCN(Cc2cc(=O)c(O)c[nH]2)CC1`, the viability was 100% (inactive).
With `COc1ccc(CCN2CCc3ccccc3C2)cc1OC` the viability was 86.9% (inactive).
In the case of `Oc1ccc(CCN2CCc3ccccc3C2)cc1O`, the viability was 85.7% (inactive).
In the case of `CCC(C)c1ccc(N)c(O)c1` (stereo not given), the viability was 103% (inactive).
With `O=C1OCCN1CCc1nc(-c2ccc(O)c(O)c2)cs1` the viability was 92.6% (inactive).
For `COc1ccc(CCN(C)c2ccncc2)cc1OC`, the viability was 83.9% (inactive).
With `Oc1ccc(CCNc2c3c(nc4ccccc24)CCCC3)cc1O` the viability was 92.2% (inactive).
For `CCC(C)C(=O)Nc1ccccc1O` (stereo not given), the viability was 99.8% (inactive).
In the case of `CCC(C)C(=O)Nc1ccccc1N` (stereo not given), the viability was 105% (inactive).
In the case of `CN(CCc1ccc(O)c(O)c1)c1ccncc1`, the viability was 99.3% (inactive).
For `Cc1c(O)c(=O)ccn1CCNc1c2ccccc2nc2ccccc12`, the viability was 89.4% (inactive).
With `COc1ccc(CCNC2CCN(C)CC2)cc1OC` the viability was 97.5% (inactive).

System: Vero E6 viability, CellTiter-Glo luminescence, 72 h
Test: as above
Conditions: not given
`COc1ccc(CCCNc2c3ccccc3nc3ccccc23)cc1OC` showed a CC50 of 21.8 µM.
Compound `NCCNc1c2ccccc2nc2ccccc12` has a CC50 of 45.3 µM.
Work on `Oc1ccc(CCNC(c2ccccc2)c2ccccc2)cc1O` yielded a CC50 of 36.3 µM.
Compound `Oc1ccc(CCNc2ccc3ccccc3c2)cc1O` has a CC50 of 28.3 µM.
Compound `O=S1(=O)c2ccccc2-c2cc(-c3nc(-c4ccc(O)c(O)c4)[nH]c3-c3ccccc3)ccc21` has a CC50 of 19.4 µM.
`O=C1c2ccc3c4c(ccc(c24)C(=O)N1O)CC3` showed a CC50 of 9.17 µM.
`Oc1ccc(CCNc2cccc3ccccc23)cc1O` gave a CC50 of 16.5 µM.
For `COc1ccc(CNc2c3ccccc3nc3ccccc23)cc1OC`, the CC50 was 5.37 µM.
`Cc1ccc(-c2nc(-c3ccc(O)c(O)c3)cs2)cc1` gave a CC50 of 24.5 µM.
In the case of `Oc1ccc(CCNc2c3ccccc3nc3ccccc23)cc1`, the CC50 was 7.34 µM.
With `CCOc1cccc(-c2nc(-c3ccc(O)c(O)c3)cs2)c1` the CC50 was 21.2 µM.
Work on `Cc1nc(NCCc2ccc(O)c(O)c2)c2c3c(sc2n1)CCC3` yielded a CC50 of 43.7 µM.
`Oc1ccc(CNc2c3ccccc3nc3ccccc23)cc1O` showed a CC50 of 7.78 µM.
In the case of `COc1ccc(CCNc2c3ccccc3nc3ccccc23)cc1OC`, the CC50 was 12.6 µM.
In the case of `O=c1ccc2cc(O)c(O)cc2o1`, the CC50 was 38.2 µM.
`COc1cccc(CCNc2c3ccccc3nc3ccccc23)c1` showed a CC50 of 8.75 µM.
For `COc1ccc(CCN(C)c2c3ccccc3nc3ccccc23)cc1OC`, the CC50 was 15.9 µM.
With `CC(C)(C)C(=O)OCc1nc(-c2ccc(O)c(O)c2)cs1` the CC50 was 31.6 µM.
With `NCc1cc2c3c(c(=O)oc2c(O)c1O)CCC3` the CC50 was 29.2 µM.
For `O=c1cc(CN2CCN(Cc3ccccc3)CC2)c2ccc(O)c(O)c2o1`, the CC50 was 15.9 µM.
For `Oc1ccc(-c2csc(Cc3cc4ccccc4[nH]3)n2)cc1O`, the CC50 was 15.5 µM.
Compound `COc1ccc(CCNc2c3ccccc3nc3ccccc23)cc1` has a CC50 of 14.9 µM.
`Oc1ccc(CCNc2cncc3ccccc23)cc1O` showed a CC50 of 37.7 µM.
